Where two headings read alike, the source gives them in different places.
How the values were obtained:
[1] = molecular target: T1, Salicylate hydroxylase (NahG) (Pseudomonas putida, UniProt P23262); test: fluorometric titration; assay type: binding
T1 sequence (P23262 1-434): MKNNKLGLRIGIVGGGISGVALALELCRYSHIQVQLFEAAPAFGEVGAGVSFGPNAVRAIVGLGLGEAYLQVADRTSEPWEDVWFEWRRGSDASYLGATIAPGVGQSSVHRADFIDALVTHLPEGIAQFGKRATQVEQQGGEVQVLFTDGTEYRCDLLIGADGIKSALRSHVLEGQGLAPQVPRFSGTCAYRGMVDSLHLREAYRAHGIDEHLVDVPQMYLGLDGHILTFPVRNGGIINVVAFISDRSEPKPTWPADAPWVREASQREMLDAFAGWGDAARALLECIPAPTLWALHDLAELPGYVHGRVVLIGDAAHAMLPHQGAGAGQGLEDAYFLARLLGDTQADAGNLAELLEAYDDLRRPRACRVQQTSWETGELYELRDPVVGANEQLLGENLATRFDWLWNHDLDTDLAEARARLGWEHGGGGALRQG

[2] = molecular target: T1, Salicylate hydroxylase (NahG); test: fluorometric titration
[3] = substrate: NC(=O)C1=CN([C@@H]2O[C@H](COP(=O)(O)OP(=O)(O)OC[C@H]3O[C@@H](n4cnc5c(N)ncnc54)[C@H](O)[C@@H]3O)[C@@H](O)[C@H]2O)C=CC1; test: initial rate of NADH consumption, spectrophotometric; assay type: biochemical, Pseudomonas putida; conditions: pH 8.5, I = 0.21 M (NaCl), 25 °C, salicylate, FAD as cofactor

Molecule: O=C(O)c1ccccc1O [salicylate]
- Kd [1]: 280 ± 30 nM

Molecule: Cc1cc2nc3c(=O)[nH]c(=O)nc-3n(C[C@H](O)[C@H](O)[C@H](O)COP(=O)(O)O)c2cc1C [riboflavin 5′-monophosphate]
- Kd [2]: 2200 ± 200 nM

Molecule: Cc1cc2nc3c(=O)[nH]c(=O)nc-3n(C[C@H](O)[C@H](O)[C@H](O)COP(=O)(O)OP(=O)(O)OC[C@H]3O[C@@H](n4cnc5c(N)ncnc54)[C@H](O)[C@@H]3O)c2cc1C [Flavin adenine dinucleotide]
- Kd [2]: 36 ± 8 nM

B1: Salicylate hydroxylase (NahG) (Pseudomonas putida) (protein)
chain: MKNNKLGLRIGIVGGGISGVALALELCRYSHIQVQLFEAAPAFGEVGAGVSFGPNAVRAIVGLGLGEAYLQVADRTSEPWEDVWFEWRRGSDASYLGATIAPGVGQSSVHRADFIDALVTHLPEGIAQFGKRATQVEQQGGEVQVLFTDGTEYRCDLLIGADGIKSALRSHVLEGQGLAPQVPRFSGTCAYRGMVDSLHLREAYRAHGIDEHLVDVPQMYLGLDGHILTFPVRNGGIINVVAFISDRSEPKPTWPADAPWVREASQREMLDAFAGWGDAARALLECIPAPTLWALHDLAELPGYVHGRVVLIGDAAHAMLPHQGAGAGQGLEDAYFLARLLGDTQADAGNLAELLEAYDDLRRPRACRVQQTSWETGELYELRDPVVGANEQLLGENLATRFDWLWNHDLDTDLAEARARLGWEHGGGGALRQG
- Km [3]: 27 µM

— PMC8824312 (Bioorganic chemistry, 2021)
